According to US20240374552A1, “Compositions and Methods for Preventing or Reducing the Risk of Metabolic Syndrome” (priority 2021, published 2024):
Values after ≈ are worked out from the molar mass of the structure shown.

What was measured:
mice [1] = assay: Evaluation toxicity, 90-day daily intragastric administration in mice; type: in vivo; details: for Percentage of dead mice (%): purity min 95%
Method: To investigate the toxicity of tyrphostin AG17 the following doses were tested in mice, the animals were randomly divided into experimental groups corresponding to different doses of tyrphostin. Tyrphostin was administered intragastric via daily for 90 days, after 90 days, the mice were weighed and sacrificed by cervical dislocation.
In a second evaluation for the treatments with 5.50 mg/kg to 55.50 mg/kg of tyrphostin, using a lot tyrphostin AG17 with a minimum purity of 98% is used; the percentage of dead mice is reduced to 0% and in the case of the treatment with 100.00 mg/kg, the deaths are reduced to 10%.

mice [2] = assay: Subacute toxicity, 14-day daily intragastric administration; type: in vivo
Method: Animal studies in male and female mice of the CDI strain, and male rats of the Wistar strain were used.
During the quarantine period (15 days) they were kept in a chamber with conditions of (22+2° C., 55+5% humidity and a light/dark cycle of 12:12 h), with food and water ad libitum. Prior to the start of the experiment, the animals (mice and rats) were deprived of food for 4 h, and recovered 2 h after the administration of the drug.
The test animals were randomly divided into experimental groups corresponding to different doses of the drug, as shown in Table 2.

[3] = in vivo, 10 mg
in vivo = details: 10 mg, t1/2 (h)
[4] = pH 7.2; cited from earlier work

**Q.** For `CC(C)(C)c1cc(C=C(C#N)C#N)cc(C(C)(C)C)c1O` [tyrphostin AG17, Tyrphostin AG17], which “Percentage of dead mice (%)” value (mice [1]; T1: 0.0001 mg/Kg daily 90 days) is on record?
**A.** 0%

**Q.** And the “Percentage of dead mice (%)” value (mice [1]; T3: 0.001 mg/Kg daily 90 days)?
**A.** 0%

**Q.** What about the “Percentage of dead mice (%)” value (mice [1]; T5: 0.175 mg/Kg daily 90 days) of the same molecule?
**A.** 0%

**Q.** And the “Percentage of dead mice (%)” value (mice [1]; T7: 0.76 mg/Kg daily 90 days)?
**A.** 0%

**Q.** And the “Percentage of dead mice (%)” value (mice [1]; T8: 1.70 mg/Kg daily 90 days)?
**A.** 0%

**Q.** What about the “Percentage of dead mice (%)” value (mice [1]; T9: 1.75 mg/Kg daily 90 days) of the same molecule?
**A.** 0%

**Q.** And the “Signs of toxicity during 90-day treatment” value (mice [1]; doses below 1.75 mg/kg)?
**A.** no apparent signs of toxicity

**Q.** And the “Death, share of the population” value (mice [2]; 100.00 mg/kg)?
**A.** 40%

**Q.** What about the “Time until recovery from lethargy” value (mice [2]; 5.50 to 55.50 mg/kg) of the same molecule?
**A.** 12 h

**Q.** And the “Signs of subacute toxicity presented” value (mice [2]; AT1: 0.175 mg/Kg daily 14 days)?
**A.** No apparent signs

**Q.** What about the “Signs of subacute toxicity presented” value (mice [2]; AT2: 0.55 mg/Kg daily 14 days) of the same molecule?
**A.** No apparent signs

**Q.** What about the “Signs of subacute toxicity presented” value (mice [2]; AT3: 1.75 mg/Kg daily 14 days) of the same molecule?
**A.** No apparent signs

**Q.** And the “Signs of subacute toxicity presented” value (mice [2]; AT4: 5.50 mg/Kg daily 14 days)?
**A.** Lethargy (10%)

**Q.** What about the “Lethargy, share of the population” value (mice [2]; AT4 group, 5.50 mg/kg) of the same molecule?
**A.** 10%

**Q.** What about the “Signs of subacute toxicity presented” value (mice [2]; AT5: 55.50 mg/Kg daily 14 days) of the same molecule?
**A.** Lethargy (20%)

**Q.** What about the “Lethargy, share of the population” value (mice [2]; AT5 group, 55.50 mg/kg) of the same molecule?
**A.** 20%

**Q.** What about the “Signs of subacute toxicity presented” value (mice [2]; AT6: 100.00 mg/Kg daily 14 days) of the same molecule?
**A.** Death (40%)

**Q.** And the “Vdapa (L), Geometric Mean” value [3]?
**A.** 22.038 L

**Q.** And the “Vdapa (L), Mean” value [3]?
**A.** 22.537 L

**Q.** What about the “Vdapa (L), Median” value [3] of the same molecule?
**A.** 22.494 L

**Q.** And the half-life (in vivo; Geometric Mean)?
**A.** 80.6 h

**Q.** And the half-life (in vivo; Mean)?
**A.** 82.2 h

**Q.** And the half-life (in vivo; Median)?
**A.** 75.2 h

**Q.** And the Solubility [4]?
**A.** ~150 µg/mL (≈ 531 µM)
